{"source": "PubChem BioAssay AID330", "about": "(DTP/NCI, 2004)", "test_system": "P388 leukemia ip, CD2F1 mice, survival T/C", "assay": "NCI In Vivo Anticancer Drug Screen. Data for tumor model P388 Leukemia (intraperitoneal) in CD2F1 (CDF1) mice", "settings": "endpoint: median survival time, higher = longer survival", "in_short": "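Mice carrying the transplanted tumor received test compound or vehicle. Survival was recorded in each group, and the value is the treated-group measurement divided by that of the vehicle-treated control group.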", "key": {"[1]": {"settings": "dose: 60.0 mg/kg/injection, schedule: Q01DX005 (ip), vehicle: Klucel (hydroxypropylcellulose) (HPC)"}, "[2]": {"settings": "dose: 100.0 mg/kg/injection, schedule: Q01DX009 (ip), vehicle: Klucel (hydroxypropylcellulose) (HPC)"}, "[3]": {"settings": "dose: 200.0 mg/kg/injection, schedule: Q01DX009 (ip), vehicle: Klucel (hydroxypropylcellulose) (HPC)"}, "[4]": {"settings": "dose: 400.0 mg/kg/injection, schedule: Q01DX009 (ip), vehicle: Klucel (hydroxypropylcellulose) (HPC)"}, "[5]": {"settings": "dose: 50.0 mg/kg/injection, schedule: Q01DX009 (ip), vehicle: saline with Tween-80"}}, "note": "Where “and” joins values, the source holds several entries; their conditions need not be identical. Identical values can stand only once. Inconclusive results and toxic doses are left out.", "data": [{"smiles": "N[C@@H](Cc1c[nH]c2ccccc12)C(=O)Nc1nncs1", "values": [{"measurement": "T/C", "setting": "dose: 18.75 mg/kg/injection, schedule: Q01DX005 (ip), vehicle: saline", "result": "100 % of control and 102 % of control"}, {"measurement": "T/C", "setting": "dose: 37.5 mg/kg/injection, schedule: Q01DX005 (ip), vehicle: saline", "result": "98 % of control and 101 % of control"}, {"measurement": "T/C", "setting": "dose: 50.0 mg/kg/injection, schedule: Q04DX002 (ip), vehicle: suspension in saline", "result": "100 % of control"}, {"measurement": "T/C", "setting": "dose: 75.0 mg/kg/injection, schedule: Q01DX005 (ip), vehicle: saline", "result": "100 % of control and 101 % of control"}, {"measurement": "T/C", "setting": "dose: 100.0 mg/kg/injection, schedule: Q04DX002 (ip), vehicle: suspension in saline", "result": "100 % of control"}, {"measurement": "T/C", "setting": "dose: 150.0 mg/kg/injection, schedule: Q01DX005 (ip), vehicle: saline", "result": "99 % of control and 100 % of control"}, {"measurement": "T/C", "setting": "dose: 200.0 mg/kg/injection, schedule: Q04DX002 (ip), vehicle: suspension in saline", "result": "99 % of control"}, {"measurement": "T/C", "setting": "dose: 300.0 mg/kg/injection, schedule: Q01DX005 (ip), vehicle: saline", "result": "106 % of control and 109 % of control"}, {"measurement": "T/C", "setting": "dose: 600.0 mg/kg/injection, schedule: Q04DX002 (ip), vehicle: saline", "result": "171 % of control"}, {"measurement": "T/C", "setting": "dose: 800.0 mg/kg/injection, schedule: Q04DX002 (ip), vehicle: suspension in saline", "result": "151 % of control"}]}, {"smiles": "COc1ccc(C2C(C(=O)NCc3ccccc3)=C(C)NC(C)=C2C(=O)NCc2ccccc2)cc1OC", "values": [{"measurement": "T/C", "setting": "dose: 15.0 mg/kg/injection, schedule: Q01DX005 (ip), vehicle: Klucel (hydroxypropylcellulose) (HPC)", "result": "100 % of control"}, {"measurement": "T/C", "setting": "dose: 30.0 mg/kg/injection, schedule: Q01DX005 (ip), vehicle: Klucel (hydroxypropylcellulose) (HPC)", "result": "100 % of control"}, {"measurement": "T/C", "setting": "[1]", "result": "100 % of control and 88 % of control"}]}, {"smiles": "Cc1ccccc1Nc1nc(-c2ccccc2)nc(N)c1N=O", "values": [{"measurement": "T/C", "setting": "dose: 100.0 mg/kg/injection, schedule: Q04DX003 (ip), vehicle: saline", "result": "100 % of control"}, {"measurement": "T/C", "setting": "dose: 200.0 mg/kg/injection, schedule: Q04DX003 (ip), vehicle: saline", "result": "98 % of control"}, {"measurement": "T/C", "setting": "dose: 400.0 mg/kg/injection, schedule: Q04DX003 (ip), vehicle: saline", "result": "98 % of control"}]}, {"smiles": "CC1=CC(=O)C(O)C2(C)C1CC1OC(=O)C(OC(=O)/C=C(\\C)C(C)C)C3C(C)C(O)C4(O)OCC13C42", "note": "(centres undefined)", "values": [{"measurement": "T/C", "setting": "dose: 0.25 mg/kg/injection, schedule: Q01DX005 (ip), vehicle: saline + alcohol", "result": "113 % of control"}, {"measurement": "T/C", "setting": "dose: 0.5 mg/kg/injection, schedule: Q01DX005 (ip), vehicle: saline + alcohol", "result": "121 % of control"}, {"measurement": "T/C", "setting": "dose: 1.0 mg/kg/injection, schedule: Q01DX005 (ip), vehicle: saline + alcohol", "result": "121 % of control"}]}, {"smiles": "NNC(=O)Cc1cc(=O)[nH][nH]1", "values": [{"measurement": "T/C", "setting": "[2]", "result": "101 % of control"}, {"measurement": "T/C", "setting": "[3]", "result": "100 % of control"}, {"measurement": "T/C", "setting": "[4]", "result": "108 % of control"}]}, {"smiles": "COc1cc2c(cc1NC(C)=O)C(=O)CCCC2", "values": [{"measurement": "T/C", "setting": "dose: 100.0 mg/kg/injection, schedule: Q01DX009 (ip), vehicle: saline + alcohol", "result": "107 % of control"}, {"measurement": "T/C", "setting": "dose: 200.0 mg/kg/injection, schedule: Q01DX009 (ip), vehicle: saline + alcohol", "result": "103 % of control"}, {"measurement": "T/C", "setting": "dose: 400.0 mg/kg/injection, schedule: Q01DX009 (ip), vehicle: saline + alcohol", "result": "110 % of control"}]}, {"smiles": "C/C=C1/CN(C)C2Cc3c([nH]c4ccccc34)C(c3cc4[nH]c5c(c4cc3OC)CCN3CC4CC(CC)C3C5(COC(=O)c3ccc(OC)c(OC)c3)C4)CC1C2C(=O)OC", "note": "(centres undefined)", "values": [{"measurement": "T/C", "setting": "dose: 6.25 mg/kg/injection, schedule: Q01DX001 (ip), vehicle: Klucel (hydroxypropylcellulose) (HPC)", "result": "107 % of control"}, {"measurement": "T/C", "setting": "dose: 12.5 mg/kg/injection, schedule: Q01DX001 (ip), vehicle: Klucel (hydroxypropylcellulose) (HPC)", "result": "106 % of control"}, {"measurement": "T/C", "setting": "dose: 25.0 mg/kg/injection, schedule: Q01DX001 (ip), vehicle: Klucel (hydroxypropylcellulose) (HPC)", "result": "106 % of control and 113 % of control"}, {"measurement": "T/C", "setting": "dose: 50.0 mg/kg/injection, schedule: Q01DX001 (ip), vehicle: Klucel (hydroxypropylcellulose) (HPC)", "result": "104 % of control"}, {"measurement": "T/C", "setting": "dose: 100.0 mg/kg/injection, schedule: Q01DX001 (ip), vehicle: Klucel (hydroxypropylcellulose) (HPC)", "result": "100 % of control"}, {"measurement": "T/C", "setting": "dose: 200.0 mg/kg/injection, schedule: Q01DX001 (ip), vehicle: Klucel (hydroxypropylcellulose) (HPC)", "result": "100 % of control"}]}, {"smiles": "CN(CC(=O)NN)c1ccccc1", "values": [{"measurement": "T/C", "setting": "dose: 50.0 mg/kg/injection, schedule: Q01DX005 (ip), vehicle: saline with Tween-80", "result": "93 % of control"}, {"measurement": "T/C", "setting": "dose: 100.0 mg/kg/injection, schedule: Q01DX005 (ip), vehicle: saline with Tween-80", "result": "95 % of control"}, {"measurement": "T/C", "setting": "dose: 200.0 mg/kg/injection, schedule: Q01DX005 (ip), vehicle: saline with Tween-80", "result": "95 % of control"}]}, {"smiles": "Nc1cccc(CC(=O)Nc2ccccc2)c1", "values": [{"measurement": "T/C", "setting": "dose: 100.0 mg/kg/injection, schedule: Q04DX002 (ip), vehicle: Klucel (hydroxypropylcellulose) (HPC)", "result": "100 % of control"}, {"measurement": "T/C", "setting": "dose: 200.0 mg/kg/injection, schedule: Q04DX002 (ip), vehicle: Klucel (hydroxypropylcellulose) (HPC)", "result": "97 % of control"}]}, {"smiles": "Cc1ccc(NNC2=NC(=S)NC(=O)C2)cc1", "values": [{"measurement": "T/C", "setting": "[5]", "result": "111 % of control"}, {"measurement": "T/C", "setting": "dose: 100.0 mg/kg/injection, schedule: Q01DX009 (ip), vehicle: saline with Tween-80", "result": "95 % of control"}, {"measurement": "T/C", "setting": "dose: 200.0 mg/kg/injection, schedule: Q01DX009 (ip), vehicle: saline with Tween-80", "result": "104 % of control"}]}, {"smiles": "Cc1cc(C)nc(NCCCCCCCCNc2nc(C)cc(C)n2)n1", "values": [{"measurement": "T/C", "setting": "dose: 50.0 mg/kg/injection, schedule: Q01DX005 (ip), vehicle: Klucel (hydroxypropylcellulose) (HPC)", "result": "91 % of control"}, {"measurement": "T/C", "setting": "dose: 100.0 mg/kg/injection, schedule: Q01DX005 (ip), vehicle: Klucel (hydroxypropylcellulose) (HPC)", "result": "96 % of control"}, {"measurement": "T/C", "setting": "dose: 200.0 mg/kg/injection, schedule: Q01DX005 (ip), vehicle: Klucel (hydroxypropylcellulose) (HPC)", "result": "90 % of control"}]}, {"smiles": "NC(N)=NC(N)=Nc1c(F)c(F)c(F)c(F)c1F", "values": [{"measurement": "T/C", "setting": "dose: 6.25 mg/kg/injection, schedule: Q01DX009 (ip), vehicle: saline with Tween-80", "result": "107 % of control"}, {"measurement": "T/C", "setting": "dose: 12.5 mg/kg/injection, schedule: Q01DX009 (ip), vehicle: saline with Tween-80", "result": "100 % of control"}, {"measurement": "T/C", "setting": "dose: 25.0 mg/kg/injection, schedule: Q01DX009 (ip), vehicle: saline with Tween-80", "result": "101 % of control and 113 % of control"}, {"measurement": "T/C", "setting": "[5]", "result": "116 % of control"}]}, {"smiles": "NC(=O)CCCSC1=CC(=O)c2ccccc2C1=O", "values": [{"measurement": "T/C", "setting": "dose: 3.12 mg/kg/injection, schedule: Q04DX002 (ip), vehicle: saline with Tween-80", "result": "104 % of control"}, {"measurement": "T/C", "setting": "dose: 6.25 mg/kg/injection, schedule: Q04DX002 (ip), vehicle: saline with Tween-80", "result": "101 % of control"}, {"measurement": "T/C", "setting": "dose: 12.5 mg/kg/injection, schedule: Q04DX002 (ip), vehicle: saline with Tween-80", "result": "111 % of control and 114 % of control"}]}, {"smiles": "Clc1ncnc2c1ncn2C1CCCO1", "note": "(centres undefined)", "values": [{"measurement": "T/C", "setting": "dose: 50.0 mg/kg/injection, schedule: Q01DX009 (ip), vehicle: saline", "result": "110 % of control"}, {"measurement": "T/C", "setting": "dose: 100.0 mg/kg/injection, schedule: Q01DX009 (ip), vehicle: saline", "result": "115 % of control"}]}, {"smiles": "O=S(=O)(c1cc(Cl)c(Cl)cc1Cl)N(CCCCCN(S(=O)(=O)c1cc(Cl)c(Cl)cc1Cl)S(=O)(=O)c1cc(Cl)c(Cl)cc1Cl)S(=O)(=O)c1cc(Cl)c(Cl)cc1Cl", "values": [{"measurement": "T/C", "setting": "[1]", "result": "91 % of control"}, {"measurement": "T/C", "setting": "dose: 120.0 mg/kg/injection, schedule: Q01DX005 (ip), vehicle: Klucel (hydroxypropylcellulose) (HPC)", "result": "91 % of control"}]}, {"smiles": "CC1=CC(C)(C)Nc2ccccc21", "values": [{"measurement": "T/C", "setting": "[2]", "result": "108 % of control"}, {"measurement": "T/C", "setting": "[3]", "result": "114 % of control"}, {"measurement": "T/C", "setting": "[4]", "result": "110 % of control"}]}, {"smiles": "CC(=O)NCCc1nc(-c2nc(C(=O)NCCCN)cs2)cs1", "values": [{"measurement": "T/C", "setting": "dose: 12.5 mg/kg/injection, schedule: Q01DX009 (ip), vehicle: water", "result": "93 % of control"}, {"measurement": "T/C", "setting": "dose: 25.0 mg/kg/injection, schedule: Q01DX009 (ip), vehicle: water", "result": "98 % of control"}, {"measurement": "T/C", "setting": "dose: 50.0 mg/kg/injection, schedule: Q01DX009 (ip), vehicle: water", "result": "108 % of control"}, {"measurement": "T/C", "setting": "dose: 100.0 mg/kg/injection, schedule: Q01DX009 (ip), vehicle: water", "result": "99 % of control"}, {"measurement": "T/C", "setting": "dose: 200.0 mg/kg/injection, schedule: Q01DX009 (ip), vehicle: water", "result": "98 % of control"}]}, {"smiles": "CC(=O)NNC(=O)Nc1ccc(Cl)c(Cl)c1", "values": [{"measurement": "T/C", "setting": "dose: 50.0 mg/kg/injection, schedule: Q01DX009 (ip), vehicle: Klucel (hydroxypropylcellulose) (HPC)", "result": "108 % of control"}, {"measurement": "T/C", "setting": "[2]", "result": "103 % of control"}, {"measurement": "T/C", "setting": "[3]", "result": "91 % of control"}]}]}
